Measured values: EP2535049A1 (Proyecto de Biomedicina Cima, S.L., priority 2011, dated 2012)
“Also recorded” adds a separate entry of the source.

Tests used:
pTau = experiment: Western blot of pTau in hippocampus of J20 mice; assay type: in vivo; conditions: J20 mice (22-month-old) treated for 10 weeks, normalized to total Tau
Experimental: (§1) Results were compared with those obtained from age-matched negative littermates (controls). To test the effect of the PDE5 inhibitors in cognition capacity related to aging, a second treatment was carried out using 10-12 month-old non-transgenic (wild type) mice on an inbred C57/B6xSJL genetic background.
Twenty four hours after the fear conditioning test, animals (n=5, per group) were sacrificed and the brains removed for biochemical studies. The cortex and hippocampus were dissected, homogenized, and processed as described below for subsequent western blot analysis. Under xylazine/ketamine anesthesia, animals (n=4 per group) were perfused transcardially with saline and 4% paraformaldehyde in phosphate buffer (PB). After perfusion, brains were removed, post-fixed in the same fixative solution for 1 h at room temperature and cryoprotected in 30% sucrose solution in PB overnight at 4 °C. Microtome sections ([…]) were cut coronally, collected free-floating and stored in 30% ethylene glycol, 30% glycerol, and 0.1M PB at - 20 °C until processed.
(§2) Total tissue homogenates were obtained by homogenizing the hippocampus in a cold lysis buffer with protease inhibitors (0.2 M NaCl, 0.1 M HEPES, 10% glycerol, 200 mM NaF, 2 mM Na4P2O7, 5 mM EDTA, 1 mM EGTA, 2 mM DTT, 0.5 mM PMSF, 1 mM Na3VO4, 1 mM benzamidine, 10 µg/ml leupeptin, 400 U/ml aprotinin), centrifuged at 14,000 x g 4 °C for 20 minutes and the supernatant was aliquoted and stored at -80 °C. Total protein concentrations were determined using the BioRad Bradford protein assay (BioRad Laboratories).
Protein samples were mixed with an equal volume of 2 x Laemmli sample buffer, resolved onto SDS-polyacrylamide gels and transferred to nitrocellulose membrane. […] Following two washes in PBS/Tween-20 or TBS/Tween-20 and one PBS or TBS alone, immunolabeled protein bands were detected by using HRP-conjugated anti-rabbit or anti-mouse antibody (Santa Cruz; dilution 1:5000) following an enhanced chemiluminescence system (ECL, GE Healthcare Bioscience, Buckinghamshire, UK), and autoradiographic exposure to Hyperfilm™ECL (GE Healthcare Bioscience). Quantity OneTM software v.4.6.3 (Bio-Rad) was used for quantification.

pAkt = experiment: Western blot of pAkt in hippocampus of J20 mice; assay type: in vivo; conditions: J20 mice treated for 10 weeks, vs saline
Experimental: as §1
(§3) Twenty four hours after the fear conditioning test, animals (n=5, per group) were sacrificed and the brains removed for biochemical studies. The cortex and hippocampus were dissected, homogenized, and processed as described below for subsequent western blot analysis. […]
as §2
(§4) Protein samples were mixed with an equal volume of 2 x Laemmli sample buffer, resolved onto SDS-polyacrylamide gels and transferred to nitrocellulose membrane. […] Quantity OneTM software v.4.6.3 (Bio-Rad) was used for quantification.

[1] = tested on: aged wild type animals (C57/b6xSJL); experiment: Morris water maze in aged wild type animals; assay type: in vivo, mice; conditions: 5-weeks treatment, 15 mg/Kg orally; aged (12-14-month-old) wild type animals; vs saline
Experimental: Results were compared with those obtained from age-matched negative littermates (controls). […] The MWM test was used to evaluate spatial memory as previously described (Hsiao et al., 1996; Reed et al., 2010; Ricobaraza et al., 2009). After treatments, groups of animals underwent spatial reference learning and memory testing in the MWM. The water maze was a circular pool (diameter 1.2 m) filled with water maintained at 20 °C and made opaque by the addition of non-toxic white paint. Mice were trained for three consecutive days (8 trials/day) swimming to a raised platform (visible-platform). No distal visible cues were present during this phase. The same platform location was used for all visible-platform sessions and was changed for the invisible-platform training (submerged 1 cm beneath the surface) conducted over 8 consecutive days (4 trials/day) with all visible distal cues present in this phase. […] In the probe trials the platform was removed from the pool, and the percentage of time spent in the quadrant where the platform was previously set was recorded. All trials were monitored by a camera above the center of the pool connected to a SMART-LD program (Panlab S.L., Barcelona, Spain) for subsequent analysis of escape latencies, swimming speed, path length and percent time spent in each quadrant of the pool during probe trials. […]

pGSK3β-Ser9 = experiment: Western blot of pGSK3β-Ser9 in hippocampus of J20 mice; assay type: in vivo; conditions: J20 mice treated for 10 weeks, vs saline
Experimental: as §1, §3, §2, §4

AD mouse models = conditions: Puzzo et al., 2009; cited from earlier work
[2] = tested on: aged wild type animals (C57/b6xSJL); experiment: Fear conditioning test in aged wild type animals; assay type: in vivo, mice; conditions: 5-weeks treatment, 15 mg/Kg orally, aged (12-14-month-old) wild type animals, 24h and 7 days after training, vs saline
Experimental: Results were compared with those obtained from age-matched negative littermates (controls). […] After running the MWM, all the animals were trained in the fear conditioning test. The conditioning procedure was carried out in a StartFear system (Panlab S.L.) that allows recording and analysis of the signal generated by the animal movement through a high sensitivity Weight Transducer system. The analogical signal is transmitted to the FREEZING and […] software modules through the load cell unit for recording purposes and posterior analysis in terms of activity/immobility. The conditioning box is housed inside a soundproof chamber, which minimized external stimulation during the conditioning and retention tests. The box was provided with a house light that supplied dim illumination and with a floor grid through which foot shocks could be administered. On training day, the mice were placed in the conditioning chamber for 2 minutes before the onset of a tone at 2800 Hz, 85 dB (conditioned stimulus, CS), which lasted for 30 seconds. The last 2 seconds of the CS was paired with a 0.3 mA foot shock (unconditioned stimulus, US). Thirty seconds after the paired CS-US, mice were returned to their cage. […] Freezing behavior was defined as the lack of movement except for breathing for at least 2 seconds, and was analyzed to give the percentage time freezing during exposure to the chamber. […]

GluR2/3 = experiment: Western blot of GluR2/3 in hippocampus of J20 mice; assay type: in vivo; conditions: J20 mice treated for 10 weeks
Experimental: as §1, §3, §2, §4

Structure (SMILES) | pTau levels (AT8) by Western blotting (pTau) | level of pAkt (pAkt) | learning ability and memory retention in the MWM [1] | pGSK3β-Ser9 levels (pGSK3β-Ser9) | effect on memory in AD mouse models (AD mouse models) | learning ability and memory retention in the FC test [2] | expression levels of GluR2/3 (GluR2/3) | pTau levels (PHF1) by Western blotting (pTau) | pTau levels (AT8) by Western blotting (pTau; listed as Tadalafil)
CCCc1nn(C)c2c(=O)[nH]c(-c3cc(S(=O)(=O)N4CCN(C)CC4)ccc3OCC)nc12 [sildenafil] | decrease in Tau pathology | reduction was reverted | only observed in the FC test | significantly increased | efficacious drug in improving memory | significant enhancement of memory; also recorded: only observed in the FC test (24h after training) | recovered the low expression levels | – | –
CN1CC(=O)N2[C@H](c3ccc4c(c3)OCO4)c3[nH]c4ccccc4c3C[C@@H]2C1=O [tadalafil, (6R-trans)-6-(1,3-benzodioxol-5-yl)-2,3,6,7,12,12a-hexahydro-2-methyl-pyrazino [1',2':1,6] pyrido [3,4-b]indole-1,4-dione] | decrease in Tau pathology | reduction was reverted; also recorded: higher than that of sildenafil | improved learning ability and memory retention | significantly increased; also recorded: being higher the effect of tadalafil | no effect was demonstrated | significant enhancement of memory; also recorded: improved learning ability and memory retention | recovered the low expression levels | more marked in tadalafil-treated mice | even more effective than sildenafil
